From US9708336B2, “Metallo-beta-lactamase inhibitors” (priority 2014, dated 2017)
Like-named read-outs stand apart in the source and are kept apart here.

How the values were obtained:
NDM-1 = NDM-1 (Klebsiella pneumoniae, UniProt C7C422); assay: biochemical; assay type: biochemical; settings: read-out: NDM-1 IC50
IMP-1 = IMP-1 (Serratia marcescens, UniProt P52699); assay: biochemical; assay type: biochemical; settings: read-out: IMP-1 IC50
[1] = test system: Escherichia coli expressing NDM-1 (CLB30016); assay: Antibiotic potentiation activity: synergistic concentration (MITC95) with imipenem, OD600 growth; assay type: cell-based
Method in brief: (§1)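 CLB30005 was precultured on Mueller Hinton agar with 8 ug/ml imipenem, the other strains on trypticase soy agar with 5% sheep blood, overnight at 35 °C. Saline suspensions diluted 1:100 in 1.1× CAMHB received compound and 4 μg/ml imipenem, then 22–24 h at 35 °C before absorbance reading.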

[2] = test system: Klebsiella pneumoniae expressing VIM-1 (IHMA599644); assay: as above; assay type: cell-based
Method in brief: as §1

[3] = test system: Serratia marcescens expressing IMP-1 (CL5741); assay: as above; assay type: cell-based
Method in brief: as §1

VIM-1 = VIM-1 (Pseudomonas aeruginosa (strain ATCC 15692 / DSM 22644 / CIP 104116 / JCM 14847 / LMG 12228 / 1C / PRS 101 / PAO1), UniProt A0A0F7KYQ8); assay: Enzyme activity: determination of IC50, fluorescence assay with CCF2-FA substrate (VIM-1); assay type: biochemical
[4] = NDM-1 enzyme, CCF2-FA substrate
[5] = IMP-1 enzyme, CCF2-FA substrate
[6] = (CLB30016, NDM-1), 95% growth inhibition
[7] = Klebsiella pneumoniae IHMA599644 (VIM-1), 95% growth inhibition
[8] = Serratia marcescens CL5741 (IMP-1), 95% growth inhibition
[9] = VIM-1 enzyme, CCF2-FA substrate, read-out: VIM-1 IC50
[10] = fluorescence assay with CCF2-FA substrate
[11] = concentration giving 95% inhibition of bacterial growth
[12] = fluorescence assay with CCF2-FA substrate, read-out: VIM-1 IC50
[13] = CLB30016 (NDM-1), 95% inhibition of bacterial growth
[14] = IHMA599644 (VIM-1), 95% inhibition of bacterial growth
[15] = CL5741 (IMP-1), 95% inhibition of bacterial growth
[16] = NDM-1 enzyme, CCF2-FA fluorescence assay
[17] = IMP-1 enzyme, CCF2-FA fluorescence assay
[18] = Escherichia coli expressing NDM-1 (CLB30016), 95% growth inhibition
[19] = Klebsiella pneumoniae expressing VIM-1 (IHMA599644), 95% growth inhibition
[20] = Serratia marcescens expressing IMP-1 (CL5741), 95% growth inhibition
[21] = VIM-1 enzyme, CCF2-FA fluorescence assay, read-out: VIM-1 IC50

IMP-1, sequence (P52699 whole entry, looked up): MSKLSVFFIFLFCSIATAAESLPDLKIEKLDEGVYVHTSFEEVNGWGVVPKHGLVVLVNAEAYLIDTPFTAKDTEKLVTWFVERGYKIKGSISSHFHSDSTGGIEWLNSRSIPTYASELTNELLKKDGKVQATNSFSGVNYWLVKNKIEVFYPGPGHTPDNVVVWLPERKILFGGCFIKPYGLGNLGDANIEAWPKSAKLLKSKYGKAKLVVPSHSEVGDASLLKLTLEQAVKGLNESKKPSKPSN
NDM-1, sequence (C7C422 whole entry, looked up, species assumed): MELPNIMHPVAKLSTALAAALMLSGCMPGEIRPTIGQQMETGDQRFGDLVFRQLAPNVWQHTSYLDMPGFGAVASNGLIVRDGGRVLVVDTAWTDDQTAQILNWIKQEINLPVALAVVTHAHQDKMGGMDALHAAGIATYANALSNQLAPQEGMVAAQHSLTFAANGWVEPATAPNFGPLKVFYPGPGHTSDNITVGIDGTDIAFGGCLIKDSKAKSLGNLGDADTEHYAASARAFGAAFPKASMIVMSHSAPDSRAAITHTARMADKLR

Row | Structure (SMILES) | IC50 (NDM-1; [4]) [nM] | IC50 (IMP-1; [5]) [nM] | Escherichia coli MITC95 [1, 6] [µM] | Klebsiella pneumoniae MITC95 [2, 7] [µM] | Serratia marcescens MITC95 [3, 8] [µM] | IC50 (VIM-1; [9]) [nM] | IC50 (NDM-1; [10]) [nM] | IC50 (IMP-1; [10]) [nM] | IC50 (VIM-1; [12]) [nM] | other results
1 | N=C(N)N1CCC(Cc2ccc(-c3ccc(C4CNC4)cc3)c(-c3nn[nH]n3)c2S(N)(=O)=O)CC1 [Example 604, 4-[[4-[4-(azetidin-3-yl)phenyl]-2-sulfamoyl-3-(2H-tetrazol-5-yl)phenyl]methyl]piperidine-1-carboxamidine] | 3.31 | 41.7 | 1.563 | 1.563 | 6.25 | 0.899 | – | – | – | –
2 | NS(=O)(=O)c1c(C(F)(F)F)ccc(N2CCC[C@H](O)C2)c1-c1nnn[nH]1 [Example 657, 3-[(3S)-3-hydroxypiperidin-1-yl]-2-(1H-tetrazol-5-yl)-6-(trifluoromethyl)benzenesulfonamide] | 9.66 | 10.2 | 2.344 | 4.688 | 0.7813 | 2.09 | – | – | – | –
3 | NS(=O)(=O)c1cccc(-c2cnc3ncccn23)c1-c1nnn[nH]1 [Example 647, 3-imidazo[1,2-a]pyrimidin-3-yl-2-(1H-tetrazol-5-yl)benzenesulfonamide] | 14.1 | 618 | 0.25 | 6.25 | 18.75 | 83.9 | – | – | – | –
4 | Nc1nc2c(-c3ccc(C(F)(F)F)c(S(N)(=O)=O)c3-c3nnn[nH]3)cccc2s1 [Example 561, 3-(2-aminobenzo[d]thiazol-4-yl)-2-(1H-tetrazol-5-yl)-6-(trifluoromethyl)benzenesulfonamide] | 0.153 | 0.993 | 0.668 | 2.563 | 0.09375 | 0.434 | – | – | – | –
5 | Cc1ccc(Oc2cccc(S(N)(=O)=O)c2-c2nn[nH]n2)cc1 [Example 179, 2-(2H-tetrazol-5-yl)-3-(p-tolyloxy)benzenesulfonamide] | – | – | – | – | – | – | 10.8 | 406 | 1440 | Escherichia coli expressing NDM-1 (CLB 30016) MITC95 [1, 11]: 3.125 µM; Klebsiella pneumoniae expressing VIM-1 (IHMA 599644) MITC95 [2, 11]: >200 µM; Serratia marcescens expressing IMP-1 (CL5741) MITC95 [3, 11]: 37.5 µM
6 | NS(=O)(=O)c1c(C(F)(F)F)ccc(-c2ccc(C3CCN(C4CC5(CCNCC5)C4)CC3)cc2)c1-c1nnn[nH]1 [Example 797, 4′-[1-(7-azaspiro[3.5]non-2-yl)piperidin-4-yl]-2-(1H-tetrazol-5-yl)-4-(trifluoromethyl)biphenyl-3-sulfonamide] | – | – | – | – | – | – | 5.57 | 1.51 | 9.92 | Escherichia coli MITC95 [1, 13]: 3.125 µM; Klebsiella pneumoniae MITC95 [2, 14]: 25 µM; Serratia marcescens MITC95 [3, 15]: 3.125 µM
7 | NS(=O)(=O)c1c(C(F)(F)F)ccc([C@H]2CC[C@H](NC3CC4CNCCN4C3)CC2)c1-c1nnn[nH]1 (stereo partly drawn) [Example 686, 3-[4-(octahydropyrrolo[1,2-a]pyrazin-7-ylamino)cyclohexyl]-2-(1H-tetrazol-5-yl)-6-(trifluoromethyl)benzene sulfonamide] | 9.53 | 31.7 | 1.563 | 12.5 | 6.25 | – | – | – | – | IC50 (VIM-1; VIM-1 IC50, VIM-1 enzyme, CCF2-FA substrate): 15.7 nM
8 | N=C(N)NC1CCC(CCc2ccc(C(F)(F)F)c(S(N)(=O)=O)c2-c2nn[nH]n2)CC1 (stereo not drawn) [Example 524, 3-(2-(4-Guanidinocyclohexyl)ethyl)-2-(2H-tetrazol-5-yl)-6-(trifluoromethyl)benzenesulfonamide] | 24.8 | 5.13 | 12.5 | 12.5 | 6.25 | 1.05 | – | – | – | –
9 | NS(=O)(=O)c1c(CCC(F)(F)F)ccc(-c2ccc(C3CCNCC3)cc2)c1-c1nn[nH]n1 [Example 473, 4′-(piperidin-4-yl)-2-(2H-tetrazol-5-yl)-4-(3,3,3-trifluoropropyl)-[1,1′-biphenyl]-3-sulfonamide] | – | – | – | – | – | – | – | – | – | IC50 (NDM-1; [16]): 4.47 nM; IC50 (IMP-1; [17]): 7.3 nM; Escherichia coli MITC95 [1, 18]: 4.688 µM; Klebsiella pneumoniae MITC95 [2, 19]: 4.688 µM; Serratia marcescens MITC95 [3, 20]: 0.5859 µM; IC50 (VIM-1; [21]): 1.42 nM
10 | NC1CCN(c2ccc(C(F)(F)F)c(S(N)(=O)=O)c2-c2nnn[nH]2)CC1 [Example 778, 3-(4-amino-1-piperidyl)-2-(1H-tetrazol-5-yl)-6-(trifluoromethyl) benzenesulfonamide] | – | – | – | – | – | – | 147 | 160 | 0.688 | Escherichia coli MITC95 [1, 13]: 3.125 µM; Klebsiella pneumoniae MITC95 [2, 14]: 1.172 µM; Serratia marcescens MITC95 [3, 15]: 1.563 µM
11 | N=C(N)N1Cc2ccc(-c3ccc(C(F)(F)F)c(S(N)(=O)=O)c3-c3nn[nH]n3)cc2C1 [Example 446, 5-(3-sulfamoyl-2-(2H-tetrazol-5-yl)-4-(trifluoromethyl)phenyl)isoindoline-2-carboximidamide] | – | – | – | – | – | – | – | – | – | IC50 (NDM-1; [16]): 15.4 nM; IC50 (IMP-1; [17]): 19.4 nM; Escherichia coli MITC95 [1, 18]: 1.563 µM; Klebsiella pneumoniae MITC95 [2, 19]: 1.563 µM; Serratia marcescens MITC95 [3, 20]: 0.3906 µM; IC50 (VIM-1; [21]): 0.252 nM
12 | NS(=O)(=O)c1c(C(F)(F)F)ccc(-c2ccc(C3CN(CC4CCNC4)C3)cc2)c1-c1nnn[nH]1 (stereo not drawn) [Example 818, 4′-[1-(pyrrolidin-3-ylmethyl)azetidin-3-yl]-2-(1H-tetrazol-5-yl)-4-(trifluoromethyl)biphenyl-3-sulfonamide] | – | – | – | – | – | – | 4.38 | 8.6 | 17.2 | Escherichia coli MITC95 [1, 13]: 1.563 µM; Klebsiella pneumoniae MITC95 [2, 14]: 12.5 µM; Serratia marcescens MITC95 [3, 15]: 3.125 µM
13 | NC1(CNC2CCC(c3ccc(C(F)(F)F)c(S(N)(=O)=O)c3-c3nnn[nH]3)CC2)CC1 (stereo not drawn) [Example 830, 3-[4-[(1-aminocyclopropyl)methylamino]cyclohexyl]-2-(1H-tetrazol-5-yl)-6-(trifluoromethyl)benzenesulfonamide] | – | – | – | – | – | – | 1.93 | 3.82 | 0.247 | Escherichia coli MITC95 [1, 13]: 0.25 µM; Klebsiella pneumoniae MITC95 [2, 14]: 0.8542 µM; Serratia marcescens MITC95 [3, 15]: 0.724 µM
14 | N#Cc1nc2c(-c3ccc(C(F)(F)F)c(S(N)(=O)=O)c3-c3nnn[nH]3)cccc2s1 [Example 483, 3-(2-Cyanobenzo[d]thiazol-4-yl)-2-(1H-tetrazol-5-yl)-6-(trifluoromethyl)benzenesulfonamide] | – | – | – | – | – | – | – | – | – | IC50 (NDM-1; [16]): 0.755 nM; IC50 (IMP-1; [17]): 2.12 nM; Escherichia coli MITC95 [1, 18]: 6.25 µM; Klebsiella pneumoniae MITC95 [2, 19]: 12.5 µM; Serratia marcescens MITC95 [3, 20]: 25 µM; IC50 (VIM-1; [21]): 0.216 nM
15 | Nc1ccc2cccc(-c3ccc(C(F)(F)F)c(S(N)(=O)=O)c3-c3nn[nH]n3)c2n1 [Example 554, 3-(2-amino-8-quinolyl)-2-(2H-tetrazol-5-yl)-6-(trifluoromethyl)benzenesulfonamide] | 0.115 | 0.818 | 3.125 | 3.125 | 1.563 | 0.363 | – | – | – | –
16 | NS(=O)(=O)c1c(C(F)(F)F)ccc(-c2cccc(N3CCNCC3)c2)c1-c1nnn[nH]1 [Example 723, 3′-piperazin-1-yl-2-(1H-tetrazol-5-yl)-4-(trifluoromethyl)biphenyl-3-sulfonamide] | 7.78 | 17.2 | 6.25 | 12.5 | 25 | 1.26 | – | – | – | –
